From patent US12097203B2, “Combination therapies comprising SHP2 inhibitors and PD-1 inhibitors” (HUYABIO International, LLC, priority 2021, dated 2024) come the findings set out here.

For the experiment, the system named is MC38 tumor. Briefly: Cytokine detection assay (V-Plex Proinflammatory Panel 1 Mouse Kit) in MC38 tumor bearing animals. The class given is in vivo, mice. Conditions: MC38 tumor model, plasma from tumor bearing animals 2 hours post last dose. The source says:
Reagents: GH21001 (TNO-155), GH21005 (compound of Formula Ia) were supplied by HUYA Biosciences, USA, RMC-4550 was purchased from MCE, China. Osimertinib was purchased from Selleck, China. Cisplatin was purchased from Qilu Pharma, China. Anti-PD-1 (RMP1-14) and Rat IgG2a antibodies were purchased from BioXCell (China).
All cell lines were maintained in culture and cells in exponential growth phase were harvested and quantitated by cell counter before tumor inoculation. MC38 tumor cells (1×10^6) in 0.1 ml of PBS were inoculated into the right front flank of female C57/Bl animals, mean tumor size approximately 112 mm^3 at the start of treatment.
The date of randomization and treatment initiation was denoted as day 0. Tumor volumes were measured twice per week in two dimensions using a caliper, and the volume will be expressed in mm3 using the formula: V=(L×W×W)/2, where V is tumor volume, L is tumor length (the longest tumor dimension) and W is tumor width (the longest tumor dimension perpendicular to L). Dosing volume was 10 mL/kg/day. […]
Cytokine detection assay: V-Plex Proinflammatory Panel 1 Mouse Kit (Mesoscale Discovery) was used to determine cytokine levels in plasma isolated from tumor bearing animals 2 hours post last dose. Plasma from tumor bearing animals was analyzed as described by the manufacture's guidelines. […]

With `C[C@@H]1OCC2(CCN(c3cnc(Sc4cccc(NC(=O)c5c(O)nc6n(c5=O)CCCC6)c4Cl)cn3)CC2)[C@@H]1N` [compound of Formula (Ia), N-(3-((5-((3S,4S)-4-amino-3-methyl-2-oxa-8-azaspiro[4.5]decan-8-yl)pyrazin-2-yl)thio)-2-chlorophenyl)-2-hydroxy-4-oxo-6,7,8,9-tetrahydro-4H-pyrido[1,2-a]pyrimidine-3-carboxamide], the KC/GRO level result (FIG. 2A) is “slight decreases”. Also, the TNF-alpha level entry (FIG. 2B) is “slight decreases”.
